Here are results for one compound from patent US10487078B2, “Compositions and methods of targeting mutant K-RAS” (NantBio, Inc., priority 2015, dated 2019).

pEC50, pIC50: −log10 of the molar value. Where two headings read alike, the source gives them in different places.

Common to all, as to type: cell-based
For one experiment, the target named is K-Ras wild-type (Homo sapiens, UniProt P01116). The experiment is described as follows: G-LISA Ras activation assay, 293H cells transfected with Ras wild-type, EGF-stimulated. The settings on record: 1 hour treatment, 100 ng/ml EGF. The procedure, abridged:
(§1)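 293H cells transfected with WT, G12D or G12V K-Ras plasmid, next day exposed to 3.125–50 μM compound for 1 h. WT-transfected cells then stimulated with 100 ng/ml EGF for 2 min. Cells lysed on ice; active Ras measured by G-LISA.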

The next experiment addresses K-ras G12D (Homo sapiens, UniProt P01116, G12D). The experiment can be described thus: G-LISA Ras activation assay, 293H cells transfected with G12D mutant. In short, it runs like this: as §1
A further experiment has as its target K-ras G12V (Homo sapiens, UniProt P01116, G12V). The experiment is described as follows: G-LISA Ras activation assay, 293H cells transfected with G12V mutant. As to conditions: 1 hour treatment. Here is the method: (§2) 293H cells were seeded in 6-wells at 0.6×10^6 cells per well and transfected next day with 5 μg of Ras wild-type, or G12C, G12D or G12V mutant DNA plasmid vector using transfection reagent Lipofectamine 3000. Next day cells were treated with 3.125-50 μM of Ras compounds for 1 hour. Wild-type transfected cells were subsequently treated with 100 ng/ml EGF for 2 minutes. Cells were washed once in ice-cold PBS, lysed in complete lysis buffer on ice, and processed by G-LISA according to Cytoskeleton protocol.
In-cell selectivity of the compounds presented herein against a specific K-ras mutant form can also be tested as shown in the following exemplary experiment. 293H cells were seeded in 6-wells and transfected next day with 5 μg of Ras wild-type, or G12C, G12D or G12V mutant DNA plasmid vector. Next day cells were treated with 3.125-50 μM of Ras compounds for 1 hour. Wild-type transfected cells were subsequently treated with 100 ng/ml EGF for 2 minutes. Cells were washed once in ice-cold PBS, lysed in complete lysis buffer on ice, and processed by G-LISA according to Cytoskeleton protocol. FIG. 1 depicts exemplary results.
as §2, with “In still further experiments, the inventors tested selected compounds in a G-LISA assay to compare IC50 values for wild-type and various mutant K-Ras (G12D, G12V) using the following general protocol: 293H” for “293H”

A further experiment has as its system Panc1 (G12D) cells. The experiment can be described thus: 72 hr cell viability (CellTiterBlue). As to conditions: GI50, 72 hr. How it is done: (§3) Viability assays were performed on exemplary compounds and Table 2 below lists exemplary results for selected compounds tested on wild type (Ishikawa) and various K-ras mutants (Panc1-G12D; Panc10.05-G12D; HCT116-G13D).
(§4) Cells are counted and seeded at 1000 cells/36 ul medium/well into 384-well microplates. Cells are returned to 37° C. CO2 incubator for 18 hr. Drug is made as 200× in DMSO and diluted into medium to 10×. To each well is added 4 ul 10× drug, and plates are returned to the incubator. Final assay DMSO concentration is 0.5%. After 72 hr, 8 ul CellTiterBlue (Promega) is added to each well. After 3 hr, fluorescence (Ex550/Em590) is determined on the Victor Plate Reader (Perkin Elmer). Assay range is determined by DMSO control (100% viability) and 100 uM tamoxifen (0% viability). GI50 values are calculated using Graphpad Prism.
Background: Resazurin is reduced to fluorescent resorufin, in cell work by metabolically active cells.

Another experiment has as its system Panc10.05 (G12D) cells. The experiment can be described thus: 72 hr cell viability (CellTiterBlue). As to conditions: GI50, 72 hr. Here is the method: as §3, §4
Experiment [1] has as its system Erk phosphorylation in Panc1 (G12D) cells. The experiment can be described thus: In-Cell Western Erk phosphorylation. As to conditions: EC50, one hour treatment; read-out: In-Cell Western Erk phosporylation Panc1 (G12D). How it is done:
(§5) In-cell phosphorylation assays for Erk and Akt were performed on various of the compounds and exemplary results are shown in Table 3 below using […] and Panc10.05 cell lines for G12D K-ras mutants.
(§6) Cells are seeded in complete medium into black sided, clear-bottom 384-well microplates at 3000 cells/[…]/well. Plates are returned to 37° C. CO2 incubator for 18 hr. Drug is made as 200× in DMSO and diluted into medium to 10×. To each well is added 4 ul 10× test article or controls, and plates are returned to the incubator. Final assay DMSO concentration is 0.5%. After one hour, cells are fixed in formaldehyde, rinsed & permeabilized with triton X-100, and blocked with BSA/Goat serum blocking solution. Primary phospho-Akt and phospho-ERK antibodies are added and plates are incubated overnight at 4° C. Plates are rinsed with Tween-20 wash buffer and secondary antibody (Goat anti-rabbit, Thermofisher) is added. After 2 hours, plates are rinsed in Tween-20 wash buffer, and then PBS. Plates are imaged on the Celigo (Nexcelom) and cellular fluorescence is quantitated. Full inhibition of phospho-Akt is achieved with 1 uM BEZ235 (Sellekchem), while full inhibition of phospho-ERK is achieved with 1 uM MEK Inhibitor II Calbiochem). EC50 values are calculated using Graphpad Prism.

The test system of experiment [2] is Erk phosphorylation in Panc10.05 (G12D) cells. The experiment is described as follows: In-Cell Western Erk phosphorylation. The settings on record: EC50, one hour treatment; read-out: In-Cell Western Erk phosporylation Panc10.05 (G12D). Here is the method:
as §5, §6

Experiment [3] concerns Akt phosphorylation in Panc1 (G12D) cells. The experiment is described as follows: In-Cell Western Akt phosphorylation. The settings on record: EC50, one hour treatment; read-out: In-Cell Western Akt phosporylation Panc1 (G12D). How it is done:
as §5, §6

Experiment [4] relates to Akt phosphorylation in Panc10.05 (G12D) cells. The experiment is described as follows: In-Cell Western Akt phosphorylation. The settings on record: EC50, one hour treatment; read-out: In-Cell Western Akt phosporylation Panc10.05 (G12D). Here is the method:
as §5, §6

Experiment [5] relates to pMEK and pErk in Panc10.05 (K-Ras G12D mutant) cells. The experiment is described as follows: SDS-PAGE/blot detection of pMEK and pErk (FIG. 3). As to conditions: serum-starved, 3.1 to 25 μM, 1 hour, then 100 ng/ml EGF 5 minutes. How it is done: The effect of contemplated compounds on cell signaling was tested in wild type and K-ras G12D mutant cells as follows: Cancer cell lines BxPC-3 (K-Ras wild-type), and Panc10.05 (K-Ras G12D mutant) were serum-starved 0/N before treatment with 3.1 to 25 μM of Ras compound A0837 for 1 hour before stimulation with 100 ng/ml EGF for 5 minutes. Cells were washed once in ice-cold PBS, lysed in complete lysis buffer on ice, and processed by SDS-PAGE under reducing conditions for the detection of pMEK and pErk. Membranes were stripped and re-probed for total MEK/Erk.

Sequence of K-ras G12D (P01116 1-188 isoform P01116-2 G12D): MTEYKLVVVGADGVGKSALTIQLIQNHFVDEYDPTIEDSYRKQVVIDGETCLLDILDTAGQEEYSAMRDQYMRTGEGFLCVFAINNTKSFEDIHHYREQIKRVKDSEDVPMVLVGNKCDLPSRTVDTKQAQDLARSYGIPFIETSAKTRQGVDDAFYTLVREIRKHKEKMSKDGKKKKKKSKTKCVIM
Sequence of K-Ras wild-type (P01116 1-188 isoform P01116-2): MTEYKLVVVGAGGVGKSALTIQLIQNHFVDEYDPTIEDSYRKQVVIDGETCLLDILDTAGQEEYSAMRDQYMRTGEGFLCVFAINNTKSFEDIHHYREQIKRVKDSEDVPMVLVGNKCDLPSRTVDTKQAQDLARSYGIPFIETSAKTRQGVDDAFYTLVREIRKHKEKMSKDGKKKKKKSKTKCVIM
Sequence of K-ras G12V (P01116 1-188 isoform P01116-2 G12V): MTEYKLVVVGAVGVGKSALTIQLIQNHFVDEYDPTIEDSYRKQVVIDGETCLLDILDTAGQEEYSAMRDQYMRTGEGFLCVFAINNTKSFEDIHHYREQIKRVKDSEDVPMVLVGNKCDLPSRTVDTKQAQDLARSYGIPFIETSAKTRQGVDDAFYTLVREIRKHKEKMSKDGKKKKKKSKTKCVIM

Usually IC50 stands for the midpoint of a concentration-inhibition curve. With `Cc1nc(C)c(C(=O)Nc2nc(-c3ccc4[nH]c(=O)[nH]c4c3)cs2)s1` [Compound 4562], the IC50 at K-Ras wild-type (Table 1, G-LISA, 293H transfected, read-out: IC50 (μM) Wild-type) came out at 0.5 µM; at K-ras G12D (Table 1, G-LISA, 293H transfected, 1 hour treatment, read-out: IC50 (μM) G12D) it was 10 µM; on K-ras G12V (Table 1, G-LISA, 293H transfected, read-out: IC50 (μM) G12V), 38 µM. Moreover, the pIC50 on K-Ras wild-type (Table 5, IC50, 293H transfected, read-out: G-LISA (wild type)) is 6.30; on K-ras G12D (Table 5, IC50, 293H transfected, 1 hour treatment, read-out: G-LISA (G12D)) it was 4.89 to 5.15; on K-ras G12V (Table 5, IC50, 293H transfected, read-out: G-LISA (G12V)) it was 4.42; in the experiment with Panc1 (G12D) cells it was 5.22; in the experiment on Panc10.05 (G12D) cells it was 5.70. Besides, the “In-cell selectivity among K-ras forms, G-LISA (FIG. 1)” value on K-ras G12D (293H transfected with wild-type, G12C, G12D or G12V, 3.125-50 μM, 1 hour) is reported as “pronounced selectivity towards the G12D mutant form”. Also, the “IC50 for G12D compared to the wild type, G-LISA (FIG. 1)” value against K-ras G12D (293H transfected, 3.125-50 μM, 1 hour) is listed as “lower IC50 as compared to the wild type”. Also, the pEC50 was 5.30 in experiment [1], 5.40 in experiment [2], 5.10 in experiment [3] and 4.66 in experiment [4]. The “Signaling downstream of Ras (pMEK, pErk), mutant cell line (FIG. 3)” value in [5] is on record as “inhibited signaling downstream of Ras in the mutant cell line”.
